Reference: patent publication US20050025821A1, “Lipid-comprising drug delivery complexes and methods for their production” (priority 2001, published 2005)
Blank lines part the entries; values can stand above or below the compound they belong to. Non-standard residues stand in square brackets, D forms with d. Residues, ends and D or L forms follow the SMILES beside them. No end group written: not given here.

Columns and labels:
KB cells [1] = experiment: Effect of lysomotrophic agent on PPAA-mediated transfection; assay type: cell-based; conditions: added half an hour prior to LPD
Protocol: Lysomotrophic agent, either chloroquine (an anti-malarial drug, weak base protonated in endosome) or bafilomycin A (a specific ATPase inhibitor which reduces the amount of protons entering the endosome), capable of preventing endosomal acidification, were added in varying amounts to the transfection mixture half and hour prior to LPD addition to the cells.

[2] = MTLP peptide stability in serum over time (HPLC-UV); assay type: in vitro ADME, mouse; conditions: 37° C.; for stability in mouse serum (recovery by HPLC-UV): 1 mg/mL peptide + equal volume mouse serum, 10-120 min
Protocol: The MTLP peptide solutions were prepared at 1 mg/mL and 20 μL aliquots placed in tubes. To one set of tubes an equal volume of mouse serum was added and to a second set 0.9% saline solution was added as negative a control. The tubes were incubated at 37° C. A control and a sample tube were removed at various timepoints (10, 30, 60 and 120 min) and any reaction quenched using 70:30 acetonitrile:water (160 μL). Each quenched sample was then analysed by HPLC-UV at 220 nm with a C18 column (5 μm, 300Å, 250×4.6 mm id) for 45 minutes. Mobile phase A was 10:90 acetonitrile: 0.1% trifluoroacetic acid in water and mobile phase B was 0.1% trifluoroacetic acid in acetonitrile.

MDA-MB-231 cells = experiment: Competition assays of ligand-mediated transfection; assay type: cell-based, human; conditions: 0.1 μg DNA/well; for effect of 1000-fold excess of free peptide on DSPE-PEG5K-RGD mediated transfection: 10 mol % DSPE-PEG5K-RGD LPD
Protocol: Three competitions assays were performed using MDA-MB-231 cells in order to assess specificity of transfection-mediated-[…] (SEQ ID NO:10) or DSPE-PEG5K-RGD (SEQ ID NO:11). Transfections were performed as described above except that the culture media was supplemented with free LHRH or RGD peptides, or antibody against the LHRH or the integrin receptor as competition agents. 10 mol % pegylated lipid or targeting factor-pegylated lipid conjugate was used for each experiment.
The first competition assay was performed using 1 μg DNA/well. This DNA concentration required a high concentration of free LHRH to achieve a 100 fold excess of free LHRH which was toxic for the cells. Similarly, with the RGD formulation, this DNA concentration required a high concentration of free RGD in order to achieve 100 fold excess of free RGD (3.25 μl of dansyl-labeled RGD ((Integrated Biomolecule Corporation, Tucson, Ariz.) from a solution at 5 mg/ml in H2O) which was toxic for the cells.
In order to decrease LHRH associated toxicity, a second competition assay was performed using 0.1 μg DNA/well (FIGS. 6A and 6B). 0.1 μg DNA/well corresponds to 862.62 ng DSPE-PEG5K-LHRH (SEQ ID NO:10) or 168.6 ng of LHRH/well using a 12 nmol:1 μg lipid:DNA ratio and 10 mol % DSPE-PEG5K-LHRH (SEQ ID NO:10) in the total lipids in the formulation. Transfections were performed as described above. The second competition assay was performed using 17.5 μg/well (5 μl) of anti-LHRH receptor F1G4, and 15 μg/well (50 μl) of anti-LHRH receptor A9E4 from Biogenesis (Kingston, N.H.). The appropriate isotype match antibody (17.5 μg/well), anti-CD3 IgG1K (Pharmingen, San Diego, Calif.), was used as a control. Additionally, a 100-fold and 1000 fold excess of LHRH was tested as a competition agent: the media was supplemented with 6.5 μl or 65 μl of a stock solution of 2.5 mg/ml of [D-Trp]-LHRH from Sigma (St. Louis, Mo.). Moreover, in this particular experiment, 2 anti-LHRH receptor polyclonal serums were tested: 5 μl/well of a rabbit serum anti-LHRH receptor (Biogenesis, Kingston, N.H.) and 50 μl/well sheep serum anti-LHRH receptor (Biogenesis, Kingston, N.H.). The corresponding volumes of control serum were used as an isotype control. Control serums were purchased from Sigma (St. Louis, Mo.).
LPDs were also directly incubated with an anti-LHRH antibody or an isotype control (Anti-IgG) antibody before addition of LPDs to cells in order to block the LHRH molecule on the LPD surface (data not shown). Briefly, 6.67 μl of 1/10 diluted DSPE-PEG5K-LHRH LPDs at 150 μg DNA/ml were mixed with 50 μl of mouse anti-LHRH antibody or control (Dako Corporation, Carpinteria, Calif.) and incubated for 1 h at room temperature prior to transfection as described above. […]

HepSK1 cells = experiment: In vitro transfection (luciferase expression); assay type: cell-based, human; conditions: Hep-SK 1 (non-ASGPR), 100 μM ligand, 1 μg DNA
Protocol: (§1) For in vitro cell testing of the galactosylated peptides, the following cell lines were used: HepG2 (ATCC, Manassas, Va.): Hepatocarcinoma cell line expressing the asialyglycoprotein (ASGP) receptor. […] These two cell lines were tested for the presence of the ASGP receptor by westen blotting with an anti-asialoglycoprotein receptor antibody from Calbiochem (Nottingham, UK). This confirmed the presence of the receptor in HepG2 cells and the absence of the receptor from Hep-SK1 cells (data not shown).
(§2) The formulations were incubated with the cells for 4 h, at which point the formulations were aspirated and fresh serum containing complete medium was added to the cells. Cells were harvested 48 h post transfection and were assayed for total cell protein expression and luciferase reporter gene expression. […] Thus, multifunctional targeting factors such as galactose-Elan094 (SEQ ID NO:6) can increase transfection activity over a single fimctional targeting factor.
In vitro cell transfections were carried out as described supra in a number of cell types. […] The results for two different cell types, a human liver cell line (HepSK1) and a human breast cell line (MDA-MB-231), are shown in Tables 7 and 8.

HepG2 cells = experiment: In vitro transfection (luciferase expression); assay type: cell-based; conditions: for transfection with DC-Chol:DOPE LPDs containing ligand: HepG2 (ASGPR bearing), 100 μM ligand, 1 μg DNA
Protocol: 16-24 hr prior to transfection, 5×10^4 cells (MDA-MB-231, LL/2 or HepG-2 (ATCC, Manassas, Va.)) in 500 μl/well of appropriate media (ATCC catalog describes appropriate media for each cell type) containing 10% FBS were seeded in a 48 well plate (Costar, Coming, N.Y.) and incubated overnight at 37° C. in 5% or 10% CO2. The following day, the media was removed and replaced with 500 μl of fresh serum-free media. […] After transfection, luciferase activity was assayed as described (Promega Luciferase Assay Kit, Cat. No. E1501, Madison, Wis.). Briefly, the cell culture media was removed and replaced by fresh media containing 10% FBS, and the cells were incubated at 37° C. in 5% or 10% CO2 for a further 48 h. Each well was washed with 1 ml PBS 0.095 M pH7.4 (Biowhittaker, Walkersville, Md.) and suspended in 200 μl of 1× luciferase reporter buffer (RLB) (Promega, Madison, Wis.). The cells were then subject to 3 cycles of freeze/thaw at −70° C./37° C., respectively. Cells were harvested and spun for 10 min at 14,000 rpm. 20 μl of the supernatant was assayed for luciferase activity by addition of 100 μl of luciferase substrate (Promega, Madison, Wis.), followed by a 10 sec incubation time at room temperature before luminescence relative units were measured using a Berthold (Aliquippa, Pa. autolumat B953 luminometer. The total protein concentration per sample was determined using a commercial kit of Coomassie plus dye (Pierce, Rockford, Ill.).
as §1, §2

KB cells [3] = experiment: In vitro transfection (luciferase expression); assay type: cell-based; conditions: 1 μg DNA/well
Protocol: The following day, the media was removed and replaced with 500 μl of fresh serum-free media.

[4] = biological target: LHRH receptor on MDA-MB-231, SKOV3-IP1 and H-69 cells (human) (UniProt P30968); experiment: cell-based or functional assay
LHRH receptor on MDA-MB-231, SKOV3-IP1 and H-69 cells (human), sequence (P30968 whole entry): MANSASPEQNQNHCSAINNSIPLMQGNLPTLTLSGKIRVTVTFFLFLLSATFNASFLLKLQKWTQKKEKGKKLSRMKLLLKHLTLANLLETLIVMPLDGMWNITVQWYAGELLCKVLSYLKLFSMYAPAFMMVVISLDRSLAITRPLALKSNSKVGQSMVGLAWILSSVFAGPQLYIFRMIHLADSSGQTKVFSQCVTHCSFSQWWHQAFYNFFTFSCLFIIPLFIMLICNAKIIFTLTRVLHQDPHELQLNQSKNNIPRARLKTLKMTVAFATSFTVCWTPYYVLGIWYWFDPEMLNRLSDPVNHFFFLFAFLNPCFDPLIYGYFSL

Compound: CO/C1=C\C(C)=C\[C@@H](C)[C@@H](O)[C@@H](C)C/C(C)=C/C=C/[C@H](OC)[C@@H]([C@@H](C)[C@@H](O)[C@H](C)[C@@]2(O)C[C@@H](O)[C@H](C)[C@@H](C(C)C)O2)OC1=O [Bafilomycin A, bafilomycin A]
effect on PPAA-mediated transfection (KB cells [1]; 10 ng/well): appeard to block PPAA-mediated transfection

Compound: CCN(CC)CCCC(C)Nc1ccnc2cc(Cl)ccc12 (stereo not shown) [Chloroquine, chloroquine]
effect on PPAA-mediated transfection (KB cells [1]; 1600 nM): blocked PPAA-mediated transfection

stability in mouse serum (recovery by HPLC-UV) [2]: stable in mouse serum up to 2 h
Compound: CC(C)C[C@@H](NC(=O)[C@@H](CC(C)C)NC(=O)[C@H](NC(=O)[C@H]1CCCN1C(=O)[C@@H](CC(C)C)NC(=O)[C@@H](CC(C)C)NC(=O)[C@H](NC(=O)[C@@H](C)NC(=O)[C@@H](C)NC(=O)[C@@H](CCCCN)NC(=O)[C@@H](CCCCN)NC(=O)[C@H](N)CCCCN)C(C)C)C(C)C)C(=O)N[C@H](C)C(=O)N[C@H](C)C(=O)N1CCC[C@@H]1C(=O)O [ZElan207, H2N-kkkaavllpvllaap] (H-[dK][dK][dK][dA][dA][dV][dL][dL][dP][dV][dL][dL][dA][dA][dP]-OH; C-terminus assumed)

Compound: GRGDNP
effect of 1000-fold excess of free peptide on DSPE-PEG5K-RGD mediated transfection (MDA-MB-231 cells): inhibition of transfection activity

Compound: GRGDSP
effect of 1000-fold excess of free peptide on DSPE-PEG5K-RGD mediated transfection (MDA-MB-231 cells): inhibition of transfection activity

Compound: GRGESP
effect of 1000-fold excess of free peptide on DSPE-PEG5K-RGD mediated transfection (MDA-MB-231 cells): did not inhibit transfection activity

Compound: H2N-KKKAAAVLLPVLLAAPREDL (H-KKKAAAVLLPVLLAAPREDL) [ZElan094R]
transfection with DC-Chol:DOPE LPDs containing ligand (HepSK1 cells): no increase in transfection
transfection with DC-Chol:DOPE LPDs containing ligand (HepG2 cells): Increased transfection

stability in mouse serum (recovery by HPLC-UV) [2]: degrades in mouse serum over 2 hr
ligand still detectable at 30 minutes following incubation in mouse serum [2]: up to 60%
start of degradation in mouse serum [2]: > 10 min
Compound: H-KKKAAAVLLPVLLAAP [ZElan094]

Compound: LHRH: free LHRH used as competition agent, [D-Trp]-LHRH from Sigma (QHWSYGLRPG; not fully specified (residue 1, C-terminus); ends and bridges not checked; also: D-Trp, position not given here)
effect of 1000-fold excess of free LHRH on DSPE-PEG5K-LHRH mediated transfection (MDA-MB-231 cells; 10 mol % DSPE-PEG5K-LHRH LPD): clear inhibition of transfection activity

Compound: RRRRRRRH
increase in transfection activity when formulated with CHEMS:DOPE compared to peptide-compacted DNA alone (KB cells [3]): 2 fold

Compound: S(Galactose)KKAAAVLLPVLLAAP [GElan094]
transfection with DC-Chol:DOPE LPDs containing ligand (HepSK1 cells): no increase in transfection
transfection with DC-Chol:DOPE LPDs containing ligand (HepG2 cells): Increased transfection

luciferase expression in MDA-MB-231 cells after transfection with LPDs containing 10 mol % DSPE-PEG5K-LHRH, free LHRH in the medium as competition agent [4]: 1000 fold
Compound: [D-Trp]-LHRH from Sigma (from UniProt P01148 24-33) (peptide)

Compound: des-Pro-KKAAAVLLPVLLAAS-Galactose [Elan094G]
transfection with DC-Chol:DOPE LPDs containing ligand (HepSK1 cells): no increase in transfection
dose giving optimal transfection (HepG2 cells; DC-chol:DOPE LPDs, dose titration (FIG. 14)): 50 µM
transfection with DC-Chol:DOPE LPDs containing ligand (HepG2 cells): Increased transfection
